According to US7087430B2, “Human VNO cDNA libraries” (Pherin Pharmaceuticals, Inc., priority 2000, dated 2006):

Assays:
female human VNO cell = test: Electrophysiological membrane currents in cultured human VNO cells; type: cell-based
Source text: FIG. 1 is an electrophysiological trace showing the effects of pertussis toxin on membrane currents induced by a vomeropherin.
FIG. 1C indicates when the cells were exposed to ADO (i.e., ADO pulses).
PTX uncouples receptors from their heterotrimeric G proteins and thereby blocks signal transduction. Sensitivity to PTX is an accepted marker for pathways involving G protein-coupled receptors that decrease intracellular CAMP, regulate ion channels or activate phospholipases (i.e., couple to Gi or G0). (For a review, see Simon et al., (1991) Science 252:802–808.) We have also implicated a specific type of ion channel in the response of human VNO cells to vomeropherins. […] However, as noted above, cultured VNO cells are of limited value as a screening tool due to the need to continually isolate new cells. Thus, construction of a cDNA library was desired in order to clone and express pheromone receptors in a cell line.
As noted above, […] data (FIG. 1) indicate that cells isolated from the VNO of human volunteers respond electrophysiologically to a vomeropherin via a PTX-sensitive pathway, a hallmark of G protein-coupled receptor signaling. Thus, we anticipated that components of the pathway such as G proteins (e.g., Gi and G0), adenylyl cyclase (e.g., type 3 and 7), and various ion channels are expressed in these cells. We assayed for expression of these proteins in the VNO by screening our library for cDNA clones of the corresponding mRNAs. Knowledge of the signaling components expressed in VNO neurons is essential to express the receptors functionally in tissue culture cells for high throughput drug screening assays.

human VNO = settings: cited from earlier work
human brain = settings: human volunteers, delivered non-specifically to the nasal cavity, no detectable odor (Sobel et al. 1999); cited from earlier work

Compound: C[C@@]12C=CC[C@H]1[C@@H]1CCC3=CC(=O)CC[C@]3(C)[C@H]1CC2 [androstadienone, androsta-4,16-dien-3-one]
- inward membrane currents induced by vomeropherin (female human VNO cell; 10^−7M, human VNO cell, FIG. 1A): inward currents induced
- physiological responses on administration to the human VNO (human VNO): induce bradycardia, bradypnea, increases in core body temperature, and other physiological responses

Compound: C[C@@]12C=CC[C@H]1[C@@H]1CCc3cc(O)ccc3[C@H]1CC2 [estra-1,3,5(10),16-tetraen-3-ol]
- physiological responses on administration to the human VNO (human VNO): induce bradycardia, bradypnea, increases in core body temperature, and other physiological responses

Compound: CC(=O)Oc1ccc2c(c1)CC[C@@H]1[C@@H]2CC[C@]2(C)C=CC[C@@H]12 [estra-1,3,5(10),16-tetraen-3yl acetate]
- physiological responses in vivo by site of application (human VNO; human subjects, VNO versus olfactory or respiratory epithelium (Monti-Bloch et al. 1994)): induces physiological responses in vivo only when applied specifically to the VNO
- brain activation by fMRI (human brain): dose-dependent activation of the anterior medial thalamus, the inferior frontal gyrus, and other regions of the human brain

Compound: pertussis toxin
- effect on ADO-induced inward currents (female human VNO cell; cell incubated with 100 ng/ml PTX, FIG. 1B): blocking the inward currents
- effect on electrophysiological response to a vomeropherin (female human VNO cell; cultured human VNO neuroepithelial cells, FIG. 1): blocks the electrophysiological response to a vomeropherin
